Experiment [1] concerns the target T1, Tyrosinase (Agaricus bisporus, UniProt O42713).
T1 sequence (O42713 whole entry): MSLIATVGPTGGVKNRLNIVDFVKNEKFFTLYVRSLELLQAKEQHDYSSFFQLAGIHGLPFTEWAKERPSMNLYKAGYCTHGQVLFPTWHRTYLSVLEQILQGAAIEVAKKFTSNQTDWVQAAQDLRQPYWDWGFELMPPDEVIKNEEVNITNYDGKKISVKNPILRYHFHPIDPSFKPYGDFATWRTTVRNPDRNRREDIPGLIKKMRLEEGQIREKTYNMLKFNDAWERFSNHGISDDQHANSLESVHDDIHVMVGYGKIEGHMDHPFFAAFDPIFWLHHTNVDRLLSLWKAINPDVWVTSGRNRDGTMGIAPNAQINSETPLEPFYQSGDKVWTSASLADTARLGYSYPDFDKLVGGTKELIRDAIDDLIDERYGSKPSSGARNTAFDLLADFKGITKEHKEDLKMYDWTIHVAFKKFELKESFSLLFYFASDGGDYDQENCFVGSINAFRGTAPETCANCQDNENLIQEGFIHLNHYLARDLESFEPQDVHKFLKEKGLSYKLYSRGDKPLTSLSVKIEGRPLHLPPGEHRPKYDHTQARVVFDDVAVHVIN
Description: Inhibition of mushroom tyrosinase assessed as reduction in L-DOPA oxidase activity using L-DOPA substrate at 5 uM by Dixon plot

For experiment [2], the target named is T1, Tyrosinase. This is another data set of the same source.
Description: Inhibition of mushroom tyrosinase assessed as reduction in L-DOPA oxidase activity using L-DOPA substrate
The target in experiment [3] is T2, Tyrosinase (Agaricus bisporus) (UniProt O42713).
T2 sequence (whole entry): T1 sequence (O42713 whole entry)
In words: Competitive inhibition of mushroom tyrosinase assessed as reduction in L-DOPA oxidase activity at 0.15 mM to 0.6 mM using L-DOPA substrate by Lineweaver-Burk plot.

Activity calls are given as the source filed them. The calls are words filed in the database; no cut-off is given here.

Broadly, the Ki is the dissociation constant of the complex between target and ligand, obtained from inhibition or displacement. Low values mean tighter binding, high ones weaker binding. The IC50 is the concentration needed to halve the response being measured. Higher therefore signals a need for much substance. `O/N=C(\C=C\c1ccncc1)c1cc2ccccc2cc1O`: the Ki on Tyrosinase [1] was found to be 7.82 µM. In addition, the IC50 against Tyrosinase [2] was 19.5 µM. The inhibition entry in experiment [3] is “Active”.

Consider `COc1ccc(/C=C/C(=N\O)c2cc3ccccc3cc2O)cc1OC`, for which, at Tyrosinase [1], the Ki is 22.9 µM. On Tyrosinase [2], this compound returned a concentration for half-maximal inhibition (IC50) of 42.3 µM. For the same compound, the inhibition result in experiment [3] is “Active”.

`COc1ccc(/C=C/C(=N\O)c2cc3ccccc3cc2O)c(OC)c1` had a Ki at Tyrosinase [1] of 10.6 µM. The compound further came in with a concentration for half-maximal inhibition (IC50) on Tyrosinase [2] of 23 µM. Also, the inhibition entry in experiment [3] was “Active”.

In turn, `O/N=C(\C=C\c1cccnc1)c1cc2ccccc2cc1O` returned an inhibitory constant (Ki) at Tyrosinase [1] of 6.46 µM. The IC50 against Tyrosinase [2] was determined as 12.2 µM. The inhibition entry in experiment [3] is “Active”.

Regarding `O/N=C(\C=C\c1ccccn1)c1cc2ccccc2cc1O`, the Ki on Tyrosinase [1] is 11.1 µM. The IC50 against Tyrosinase [2] amounted to 20.2 µM. Further, the inhibition result in experiment [3] is “Active”.

Turning to `COc1cc(/C=C/C(=N\O)c2cc3ccccc3cc2O)cc(OC)c1`, the Ki on Tyrosinase [1] was determined as 28.6 µM. At Tyrosinase [2], the IC50 came to 52.9 µM. For the same compound, the inhibition entry in experiment [3] is “Active”.

On Tyrosinase [1], `COc1ccc(OC)c(/C=C/C(=N\O)c2cc3ccccc3cc2O)c1` returned a Ki of 9.4 µM. Half-maximal inhibition at Tyrosinase [2] (IC50) was put at 21.9 µM. In experiment [3], the inhibition result is “Active”.

The values above are taken from ChEMBL document CHEMBL3616396, “Integrated kinetic studies and computational analysis on naphthyl chalcones as mushroom tyrosinase inhibitors” (Bioorg Med Chem Lett, 2015).
